# Measurements published in US12357636B2 (Urovant Sciences GmbH, priority 2018, dated 2025).
# Where two headings read alike, the source gives them in different places.
# Experiments:
# [1] = human, in vivo
# [2] = single rising oral dose Phase 1 pharmacokinetics; format: in vivo, human
# Description: The steady state AUC geometric mean accumulation ratios were ˜2 in young male subjects and ˜2.8 in elderly subjects (male and female).
# All subjects were healthy adults. […] Systemic exposures were greater than dose proportional up to 600 mg.
# Although exposures were similar in middle-aged males when compared to young males, plasma concentrations were higher in elderly compared to middle-aged and young subjects. […] Furthermore, the steady state AUC geometric mean accumulation ratios were ˜2 in young males and ˜2.8 in the elderly.
# [3] = tested on: patients with overactive bladder
# From the text: A placebo group was included in the main study, and a group that received tolterodine monotherapy was included in the main study and in the extension.
# [4] = human plasma protein binding; format: in vitro ADME
# [5] = PK in renal impairment, single dose 100 mg; format: in vivo, human; details: for CL/F / Fe[urine] 48 hr / AUC0-inf: single 100 mg
# From the text: The relationship between clearance and renal function was modeled using linear regression.
# patients with OAB = assay: Phase 2b study: cardiovascular safety, orthostatic AEs, blood pressure and heart rate changes (Table 17); format: in vivo, human
# From the text: None led to discontinuation. The overall incidence of orthostatic symptoms was low.
# Small differences in the percent of subjects exceeding categorical heart rate and blood pressure thresholds for vibegron were similar to those in the tolterodine arm.
# [6] = healthy matched control subjects
# [7] = vibegron 3 mg, counts based on 3 consecutive post-baseline visits
# [8] = vibegron 3 mg, mean maximum from week 1 to 8
# [9] = vibegron 15 mg, counts based on 3 consecutive post-baseline visits
compound,measurement,setting,value
"O=C(Nc1ccc(C[C@@H]2CC[C@H]([C@H](O)c3ccccc3)N2)cc1)[C@@H]1CCc2nccc(=O)n21 [Vibegron, (6S)—N-[4-[[(2S,5R)-5-[(R)-hydroxy(phenyl)methyl]pyrrolidin-2-yl]methyl]phenyl]-4-oxo-7,8-dihydro-6H-pyrrolo[1,2-a]pyrimidine-6-carboxamide]",dose recovered in feces,[1],approximately 59%
same,dose recovered in urine,[1],~20%
same,"exposure increase, young Japanese vs non-Japanese males",[2]; single dose,< 2 fold
same,dose proportionality of mean Cmax and AUC,[2]; up to 400 mg,greater than dose-proportional
same,Accidental overdose,[3]; 3 mg QD,3 (2.1) n (%)
same,Accidental overdose,[3]; 15 mg QD,6 (4.5) n (%)
same,Accidental overdose,[3]; 50 mg QD,4 (2.7) n (%)
same,Accidental overdose,[3]; 100 mg QD,11 (4.2) n (%)
same,≥1 AE,[3]; 100 mg QD,107 (41.0) n (%)
same,frequency of injuries,"[3]; human, in vivo",0.9%
same,bound to human plasma proteins,[4],approximately 49%
same,"mean increase in AUC, moderate renal impairment vs normal renal function",[5]; in vivo,1.6 fold
same,AUC0-inf higher compared to healthy matched controls,[5]; mild renal impairment,49%
same,CLR reduced compared to healthy matched controls,[5]; mild renal impairment,39%
same,Cmax higher compared to healthy matched controls,[5]; mild renal impairment,96%
same,AUC0-inf higher compared to healthy matched controls,[5]; moderate renal impairment,106%
same,CLR reduced compared to healthy matched controls,[5]; moderate renal impairment,65%
same,Cmax higher compared to healthy matched controls,[5]; moderate renal impairment,68%
same,AUC0-inf higher compared to healthy matched controls,[5]; severe renal impairment,83%
same,CLR reduced compared to healthy matched controls,[5]; severe renal impairment,82%
same,Cmax higher compared to healthy matched controls,[5]; severe renal impairment,42%
same,CL/F,[5]; [6],64.9 L/h
same,Fe[urine] 48 hr,[5]; [6],7.9%
same,AUC0-inf,[5]; mild renal impairment,2290 ng·h/mL
same,CL/F,[5]; mild renal impairment,43.6 L/h
same,Fe[urine] 48 hr,[5]; mild renal impairment,8.5%
same,CL/F,[5]; moderate renal impairment,31.5 L/h
same,Fe[urine] 48 hr,[5]; moderate renal impairment,5.5%
same,AUC0-inf,[5]; severe renal impairment,2820 ng·h/mL
same,CL/F,[5]; severe renal impairment,35.5 L/h
same,Fe[urine] 48 hr,[5]; severe renal impairment,2.1%
same,CL/F increase per one mL/min/1.73 m2 increase in eGFR,[5]; slope of linear regression,~0.8%
same,"SBP and DBP mean changes at Week 1 and mean maximum changes over 8 weeks, difference between placebo and vibegron",patients with OAB; 50 mg and 100 mg,< 1 mm Hg
same,subjects with a change from baseline in DBP>15 mmHg,patients with OAB; 100 mg,1.3%
same,"HR mean maximum changes over 8 weeks, compared to placebo",patients with OAB; in vivo,< 2 bpm
same,"DBP Change from Baseline [≥] 5 mm Hg, n/N (%)",patients with OAB; [7],14/140 (10.0) %
same,"DBP Change from Baseline [≥] 10 mm Hg, n/N (%)",patients with OAB; [7],3/140 (2.1) %
same,"DBP Change from Baseline ≥15 mm Hg, n/N (%)",patients with OAB; [7],1/140 (0.7) %
same,"HR Change from Baseline [≥] 10 bpm, n/N (%)",patients with OAB; [7],5/140 (3.6) %
same,"HR Change from Baseline ≥5 bpm, n/N (%)",patients with OAB; [7],16/140 (11.4) %
same,"HR Change from Baseline ≥15 bpm, n/N (%)",patients with OAB; [7],1/140 (0.7) %
same,"SBP Change from Baseline [≥] 5 mm Hg, n/N (%)",patients with OAB; [7],21/140 (15.0) %
same,"SBP Change from Baseline [≥] 10 mm Hg, n/N (%)",patients with OAB; [7],10/140 (7.1) %
same,"SBP Change from Baseline ≥15 mm Hg, n/N (%)",patients with OAB; [7],4/140 (2.9) %
same,"DBP Change from Baseline, Mean (95% CI) Max",patients with OAB; [8],"5.03 (3.92, 6.15) mm Hg"
same,"HR Change from Baseline, Mean (95% CI) Maximum",patients with OAB; [8],"5.57 (4.25, 6.90) bpm"
same,"SBP Change from Baseline, Mean (95% CI) Maximum",patients with OAB; [8],"7.14 (5.18, 9.10) mm Hg"
same,"DBP Change from Baseline, Mean (95% CI) (week 1)","patients with OAB; vibegron 3 mg, week 1","−0.37 (−1.69, 0.95) mm Hg"
same,"HR Change from Baseline, Mean (95% CI) (week 1)","patients with OAB; vibegron 3 mg, week 1","0.36 (−0.90, 1.62) bpm"
same,"SBP Change from Baseline, Mean (95% CI) (week 1)","patients with OAB; vibegron 3 mg, week 1","−0.35 (−2.34, 1.65) mm Hg"
same,subjects with orthostatic related AEs,patients with OAB; vibegron 15 mg group,0.3%
same,"DBP Change from Baseline [≥] 5 mm Hg, n/N (%)",patients with OAB; [9],15/132 (11.4) %
same,"DBP Change from Baseline [≥] 10 mm Hg, n/N (%)",patients with OAB; [9],3/132 (2.3) %
same,"DBP Change from Baseline ≥15 mm Hg, n/N (%)",patients with OAB; [9],1/132 (0.8) %
same,"HR Change from Baseline [≥] 10 bpm, n/N (%)",patients with OAB; [9],4/132 (3.0) %
same,"HR Change from Baseline ≥5 bpm, n/N (%)",patients with OAB; [9],17/132 (12.9) %
same,"HR Change from Baseline ≥15 bpm, n/N (%)",patients with OAB; [9],1/132 (0.8) %
same,"SBP Change from Baseline [≥] 5 mm Hg, n/N (%)",patients with OAB; [9],22/132 (16.7) %
